Measurements from patent US12473250B2, “Molecular design of new antibiotics and antibiotic adjuvants against MCR strains” (priority 2019, dated 2025).
Values after ≈ are worked out from the molar mass of the structure shown.

Columns and labels:
Type in all cases: cell-based
[1] = test system: colistin resistant MCR (+) E. Coli strains; test: MIC, broth microdilution, compound alone; settings: compound alone
In short: (§1)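 Wells held ~5×10^5 CFU/mL of bacteria prepared to 0.5 McFarland from overnight TSA colonies and exposed to serially diluted agents, following modified CLSI microdilution. After 24 h at 35 °C, growth judged by turbidity (OD600 possible); 99% inhibition sets the MIC.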

[2] = test system: colistin resistant MCR (−) E. Cloacae strain 7023456439; test: MIC, broth microdilution, compound alone; settings: strain 7023456439 E. Cloacae
In short: as §1

[3] = test system: colistin resistant MCR (−) E. Coli strains; test: MIC, broth microdilution, compound alone
In short: as §1

[4] = test system: colistin resistant MCR (+) E. Coli strains; test: Synergy study: colistin MIC in the presence of compound
In short: (§2)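 After 24 hours, MIC was read as the lowest concentration without visible growth. Drugs were tested singly and in combination by CLSI broth microdilution, equal-amount colistin:LC compound mixtures serially diluted 2-fold at a fixed synergy concentration.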

[5] = test system: colistin resistant MCR (−) E. Cloacae strain 7023456439; test: as above; settings: strain 7023456439 E. Cloacae
In short: as §2

[6] = test system: colistin resistant MCR (−) E. Coli strains; test: as above
In short: as §2

[7] = strain 6083655967, MCR(+), compound at 10 μg (Table 2a: 10 ug/ml)
[8] = strain 7023444207, MCR(+), compound at 10 μg (Table 2a: 10 ug/ml)
[9] = compound at 10 μg (Table 2a: 10 ug/ml)
[10] = strain 6083672926, MCR(−), compound at 10 μg (Table 2a: 10 ug/ml)
[11] = strain 7023446108, MCR(−), compound at 10 μg (Table 2a: 10 ug/ml)
[12] = strain 7033607097, MCR(−), compound at 10 μg (Table 2a: 10 ug/ml)

Row | Structure (SMILES) | MIC ([1]; strain 6075066346, MCR (+)) | MIC ([1]; strain 6083655967, MCR (+)) | MIC ([1]; strain 6103645107, MCR (+)) | MIC ([1]; strain 6123520276, MCR (+)) | MIC ([1]; strain 7013177695, MCR (+)) | MIC ([1]; strain 7023436560, MCR (+)) | MIC ([1]; strain 7023444207, MCR (+)) | MIC [2] | MIC ([3]; strain 6083672926, MCR (−)) | MIC ([3]; strain 7023446108, MCR (−)) | MIC ([3]; strain 7033607097, MCR (−)) | Colistin MIC in the presence of the compound [4, 7] | Colistin MIC in the presence of the compound [4, 8] | Colistin MIC in the presence of the compound [5, 9] | Colistin MIC in the presence of the compound [6, 10] | Colistin MIC in the presence of the compound [6, 11] | Colistin MIC in the presence of the compound [6, 12] | further results
1 | CC(C)=CCc1c(OCCCC[n+]2ccccc2)ccc(C(=O)/C=C/c2ccc(OCCCC[n+]3ccccc3)cc2)c1O [LC365] | 3.125 µg/mL | 3.125 µg/mL | 3.125 µg/mL | 3.125 µg/mL | 3.125 µg/mL | 3.125 µg/mL | 3.125 µg/mL | >50 µg/mL | 3.125 µg/mL | 3.125 µg/mL | 3.125 µg/mL | – | – | – | – | – | – | Colistin MIC in the presence of the compound ([4]; strain 6083655967, MCR(+), compound at 2 μg): 0.39 µg/mL; Colistin MIC in the presence of the compound ([4]; strain 6103645107, MCR(+), compound at 2 μg): 0.39 µg/mL; Colistin MIC in the presence of the compound ([4]; strain 6123520276, MCR(+), compound at 2 μg): 0.39 µg/mL; Colistin MIC in the presence of the compound ([4]; strain 7023444207, MCR(+), compound at 2 μg): 0.39 µg/mL; Colistin MIC in the presence of the compound ([5]; compound at 2 μg): >12.5 µg/mL; Colistin MIC in the presence of the compound ([6]; strain 6083672926, MCR(−), compound at 2 μg): 0.195 µg/mL; Colistin MIC in the presence of the compound ([6]; strain 7023446108, MCR(−), compound at 2 μg): 0.195 µg/mL; Colistin MIC in the presence of the compound ([6]; strain 7033607097, MCR(−), compound at 2 μg): 0.195 µg/mL
2 | CN(C)CCCN(CCCCOc1ccc(C2COc3c(ccc4c3C=CC(C)(C)O4)C2)c(OCCCCN(CCCN(C)C)CCCN(C)C)c1)CCCN(C)C (centres unmarked) [LC095] | 50 µg/mL (≈ 61.9 µM) | 50 µg/mL (≈ 61.9 µM) | 25 µg/mL (≈ 31 µM) | 50 µg/mL (≈ 61.9 µM) | 25 µg/mL (≈ 31 µM) | 25 µg/mL (≈ 31 µM) | 25 µg/mL (≈ 31 µM) | >50 µg/mL | 25 µg/mL (≈ 31 µM) | 25 µg/mL (≈ 31 µM) | 25 µg/mL (≈ 31 µM) | 3.125 µg/mL | 1.56 µg/mL | >12.5 µg/mL | 12.5 µg/mL | 3.125 µg/mL | 3.125 µg/mL | Colistin MIC in the presence of the compound ([4]; strain 6075066346, MCR(+), compound at 10 μg (Table 2a: 10 ug/ml)): 3.125 µg/mL; Colistin MIC in the presence of the compound ([4]; strain 6103645107, MCR(+), compound at 10 μg (Table 2a: 10 ug/ml)): 3.125 µg/mL; Colistin MIC in the presence of the compound ([4]; strain 6123520276, MCR(+), compound at 10 μg (Table 2a: 10 ug/ml)): 1.56 µg/mL; Colistin MIC in the presence of the compound ([4]; strain 7013177695, MCR(+), compound at 10 μg (Table 2a: 10 ug/ml)): 3.125 µg/mL; Colistin MIC in the presence of the compound ([4]; strain 7023436560, MCR(+), compound at 10 μg (Table 2a: 10 ug/ml)): 3.125 µg/mL
3 | O=C(C=Cc1ccc(OCCCCN2CCNCCNCCNCC2)cc1)c1ccc(OCCCCN2CCNCCNCCNCC2)cc1O.[Cl][Zn][Cl].[Cl][Zn][Cl] [LC304] | >50 µg/mL | >50 µg/mL | >50 µg/mL | >50 µg/mL | >50 µg/mL | >50 µg/mL | – | >50 µg/mL | >50 µg/mL | >50 µg/mL | >50 µg/mL | 1.56 µg/mL | 1.56 µg/mL | >12.5 µg/mL | 12.5 µg/mL | 3.125 µg/mL | 3.125 µg/mL | MIC ([1]; strain 7028444207 (Table 1b), MCR (+)): >50 µg/mL; Colistin MIC in the presence of the compound ([5]; compound at 5 μg (Table 2a: 5 ug/ml)): >12.5 µg/mL; Colistin MIC in the presence of the compound ([6]; strain 6083672926, MCR(−), compound at 5 μg (Table 2a: 5 ug/ml)): 12.5 µg/mL; Colistin MIC in the presence of the compound ([6]; strain 7023446108, MCR(−), compound at 5 μg (Table 2a: 5 ug/ml)): 3.125 µg/mL; Colistin MIC in the presence of the compound ([6]; strain 7033607097, MCR(−), compound at 5 μg (Table 2a: 5 ug/ml)): 3.125 µg/mL
